Assay: xn = mol fraction of the nth substance listed

COC(=O)OC + CCCC[n+]1ccn(C)c1.O=S(=O)([N-]S(=O)(=O)C(F)(F)F)C(F)(F)F
viscosity [mPa·s], 101.3 kPa
Details	288.15 K	293.15 K	298.15 K	303.15 K	308.15 K	313.15 K
x2 = 0	0.668	0.628	0.588	0.553	0.524	–
x2 = 0.003644	0.699	0.653	0.611	0.575	0.541	0.511
x2 = 0.004269	0.706	0.659	0.616	0.58	0.545	0.515
x2 = 0.005082	0.715	0.667	0.624	0.586	0.551	0.52
x2 = 0.005901	0.722	0.674	0.631	0.593	0.557	0.525
x2 = 0.00751	0.741	0.69	0.646	0.606	0.57	0.537
x2 = 0.008724	0.746	0.695	0.651	0.61	0.575	0.541
x2 = 0.009626	0.749	0.7	0.657	0.617	0.583	0.549
x2 = 0.01106	0.781	0.727	0.678	0.636	0.597	0.562
x2 = 0.012	0.792	0.737	0.687	0.644	0.605	0.57
x2 = 0.01269	0.801	0.744	0.695	0.651	0.61	0.576
x2 = 0.01439	0.817	0.759	0.708	0.663	0.621	0.586
x2 = 0.01534	0.827	0.768	0.717	0.671	0.629	0.592
x2 = 0.01537	0.827	0.768	0.717	0.671	0.629	0.592
x2 = 0.01726	0.847	0.786	0.734	0.686	0.643	0.604
x2 = 0.01986	0.874	0.811	0.755	0.706	0.662	0.621
x2 = 0.02243	0.902	0.836	0.778	0.728	0.681	0.641
x2 = 0.02369	0.914	0.847	0.788	0.736	0.689	0.648
x2 = 0.02616	0.937	0.869	0.808	0.754	0.706	0.663
x2 = 0.02694	0.945	0.876	0.814	0.759	0.711	0.668
x2 = 0.02906	0.968	0.897	0.834	0.778	0.728	0.683
x2 = 0.03392	1.016	0.94	0.873	0.814	0.76	0.714
x2 = 0.03978	1.072	0.991	0.921	0.857	0.802	0.751
x2 = 0.04295	1.102	1.019	0.945	0.88	0.822	0.77
x2 = 0.04638	1.134	1.048	0.971	0.904	0.845	0.791

CCCC[P+](CCCC)(CCCC)CCCC.F[B-](F)(F)F + C1CCOC1 + C1COCO1
298.15 K, 100 kPa
Details	viscosity [mPa·s]
x1 = 0.0007279, x2 = 0.2549	0.563
x1 = 0.0007522, x2 = 0.5064	0.531
x1 = 0.0007834, x2 = 0.7544	0.499
x1 = 0.001095, x2 = 0.2548	0.569
x1 = 0.001131, x2 = 0.5062	0.537
x1 = 0.001182, x2 = 0.7541	0.505
x1 = 0.001455, x2 = 0.2547	0.575
x1 = 0.001511, x2 = 0.506	0.542
x1 = 0.001573, x2 = 0.7538	0.51
x1 = 0.001821, x2 = 0.2546	0.581
x1 = 0.001889, x2 = 0.5058	0.548
x1 = 0.001971, x2 = 0.7535	0.516
x1 = 0.00218, x2 = 0.2545	0.588
x1 = 0.002268, x2 = 0.5056	0.554
x1 = 0.002368, x2 = 0.7532	0.522
x1 = 0.002547, x2 = 0.2544	0.595
x1 = 0.002646, x2 = 0.5054	0.561
x1 = 0.002758, x2 = 0.7529	0.528

— the CheMixHub ionic liquid set
